Melting point data for 35 compounds are collected here from patent publication US20070249620A1, “Urea Derivative” (priority 2004, published 2007).

The compound `CCOP(=O)(Cc1ccc(NC(=O)Nc2ccc(N3CCN(C(=O)Nc4c(C)cccc4Cl)CC3)cc2)cc1)OCC` returned a melting point of 218 to 220 °C.

For `COc1ccc(Cl)cc1NC(=O)Nc1ccc(N2CCN(C(=O)OC(C)(C)C)CC2)cc1` [Example 1, 4-{4-[3-(5-chloro-2-methoxy-phenyl)-ureido]-phenyl}-piperazine-1-carboxylic acid tert-butyl ester], the melting point is 205 °C.

`COc1ccc(C)cc1NC(=O)Nc1ccc(N2CCN(C(=O)OC(C)(C)C)CC2)cc1` [Example 2, 4-{4-[3-(2-methoxy-5-methyl-phenyl)-ureido]-phenyl}-piperazine-1-carboxylic acid tert-butyl ester] came in with a melting point of 157 °C.

`CC(C)(C)OC(=O)N1CCN(c2ccc(NC(=O)Nc3cccc(Oc4ccccc4)c3)cc2)CC1` [Example 3, 4-{4-[3-(3-phenoxy-phenyl)-ureido]-phenyl}-piperazine-1-carboxylic acid tert-butyl ester] returned a melting point of 172 °C.

Compound `CCOc1ccccc1NC(=O)Nc1ccc(N2CCN(C(=O)OC(C)(C)C)CC2)cc1` [Example 4, 4-{4-[3-(2-ethoxy-phenyl)-ureido]-phenyl}-piperazine-1-carboxylic acid tert-butyl ester] came in with a melting point of 84 °C.

For `CC(C)(C)OC(=O)N1CCN(c2ccc(NC(=O)Nc3ccccc3[N+](=O)[O-])cc2)CC1` [Example 6, 4-{4-[3-(2-nitro-phenyl)-ureido]-phenyl}-piperazine-1-carboxylic acid tert-butyl ester], the melting point was determined as 207 °C.

For `CC(C)(C)OC(=O)N1CCN(c2ccc(NC(=O)Nc3ccccc3Oc3ccccc3)cc2)CC1` [Example 7, 4-{4-[3-(2-phenoxy-phenyl)-ureido]-phenyl}-piperazine-1-carboxylic acid tert-butyl ester], the melting point lay in the range of 186 to 187 °C.

`CC(C)(C)OC(=O)N1CCN(c2ccc(NC(=O)Nc3cc(Cl)ccc3Oc3ccccc3)cc2)CC1` [Example 8, 4-{4-[3-(5-chloro-2-phenoxy-phenyl)-ureido]-phenyl}-piperazine-1-carboxylic acid tert-butyl ester] returned a melting point of 94 to 96 °C.

Turning to `CC(C)(C)OC(=O)N1CCN(c2ccc(NC(=O)Nc3ccccc3OC(F)F)cc2)CC1` [Example 9, 4-{4-[3-(2-difluoromethoxy-phenyl)-ureido]-phenyl}-piperazine-1-carboxylic acid tert-butyl ester], the melting point lay in the range of 154 to 155 °C.

In turn, `CC(C)(C)OC(=O)N1CCN(c2ccc(NC(=O)Nc3cc(Cl)ccc3[N+](=O)[O-])cc2)CC1` [Example 10, 4-{4-[3-(5-chloro-2-nitro-phenyl)-ureido]-phenyl}-piperazine-1-carboxylic acid tert-butyl ester] showed a melting point of 205 °C.

Consider `CC(C)(C)OC(=O)N1CCN(c2ccc(NC(=O)Nc3cc(Cl)ccc3N)cc2)CC1` [Example 11, 4-{4-[3-(2-amino-5-chloro-phenyl)-ureido]-phenyl}-piperazine-1-carboxylic acid tert-butyl ester], for which the melting point fell in the range of 187 to 189 °C.

Take `CC(C)(C)OC(=O)N1CCN(c2ccc(NC(=O)Nc3cc(Cl)ccc3NS(C)(=O)=O)cc2)CC1` [Example 12, 4-{4-[3-(5-chloro-2-methanesulfonylamino-phenyl)-ureido]-phenyl}-piperazine-1-carboxylic acid tert-butyl ester]: the melting point was found to be 127 °C.

`COc1ccccc1NC(=O)Nc1ccc(N2CCN(C(=O)OC(C)(C)C)CC2)cc1` [Example 13, 4-{4-[3-(2-methoxy-phenyl)-ureido]-phenyl}-piperazine-1-carboxylic acid tert-butyl ester] returned a melting point of 184 °C.

`CC(C)(C)OC(=O)N1CCN(c2ccc(NC(=O)Nc3ccccc3F)cc2)CC1` [Example 14, 4-{4-[3-(2-fluoro-phenyl)-ureido]-phenyl}-piperazine-1-carboxylic acid tert-butyl ester] gave a melting point of 164 to 166 °C.

As to `CC(C)(C)OC(=O)N1CCN(c2ccc(NC(=O)Nc3ccccc3Cl)cc2)CC1` [Example 15, 4-{4-[3-(2-chloro-phenyl)-ureido]-phenyl}-piperazine-1-carboxylic acid tert-butyl ester], the melting point lay within 196 to 197 °C.

`Cc1ccccc1NC(=O)Nc1ccc(N2CCN(C(=O)OC(C)(C)C)CC2)cc1` [Example 16, 4-[4-(3-o-tolyl-ureido)-phenyl]-piperazine-1-carboxylic acid tert-butyl ester] returned a melting point of 188 to 191 °C.

Turning to `CCc1ccccc1NC(=O)Nc1ccc(N2CCN(C(=O)OC(C)(C)C)CC2)cc1` [Example 17, 4-{4-[3-(2-ethyl-phenyl)-ureido]-phenyl}-piperazine-1-carboxylic acid tert-butyl ester], the melting point came out at 162 °C.

As for `CCCc1ccccc1NC(=O)Nc1ccc(N2CCN(C(=O)OC(C)(C)C)CC2)cc1` [Example 18, 4-{4-[3-(2-propyl-phenyl)-ureido]-phenyl}-piperazine-1-carboxylic acid tert-butyl ester], the melting point lay in the range of 177 to 181 °C.

Regarding `Cc1ccc(C)c(NC(=O)Nc2ccc(N3CCN(C(=O)OC(C)(C)C)CC3)cc2)c1` [Example 19, 4-{4-[3-(2,5-dimethyl-phenyl)-ureido]-phenyl}-piperazine-1-carboxylic acid tert-butyl ester], the melting point fell in the range of 219 to 220 °C.

In turn, `CN(C)c1ccc(NC(=O)Nc2ccc(N3CCN(C(=O)OC(C)(C)C)CC3)cc2)cc1` [Example 20, 4-{4-[3-(4-dimethylamino-phenyl)-ureido]-phenyl}-piperazine-1-carboxylic acid tert-butyl ester] had a melting point of 207 °C.

`CCC(C)c1ccccc1NC(=O)Nc1ccc(N2CCN(C(=O)OC(C)(C)C)CC2)cc1` (centres unmarked) [Example 21, 4-{4-[3-(2-sec-butyl-phenyl)-ureido]-phenyl}-piperazine-1-carboxylic acid tert-butyl ester] gave a melting point of 177 °C.

Take `CCOc1ccc(NC(=O)Nc2ccc(N3CCN(C(=O)OC(C)(C)C)CC3)cc2)cc1` [Example 23, 4-{4-[3-(4-ethoxy-phenyl)-ureido]-phenyl}-piperazine-1-carboxylic acid tert-butyl ester]: the melting point was 198 to 200 °C.

As for `CCc1ccc(NC(=O)Nc2ccc(N3CCN(C(=O)OC(C)(C)C)CC3)cc2)cc1` [Example 24, 4-{4-[3-(4-ethyl-phenyl)-ureido]-phenyl}-piperazine-1-carboxylic acid tert-butyl ester], the melting point fell in the range of 204 to 205 °C.

In turn, `CCC(C)c1ccc(NC(=O)Nc2ccc(N3CCN(C(=O)OC(C)(C)C)CC3)cc2)cc1` (centres unmarked) [Example 25, 4-{4-[3-(4-sec-butyl-phenyl)-ureido]-phenyl}-piperazine-1-carboxylic acid tert-butyl ester] showed a melting point of 201 to 202 °C.

With `CCCCOc1ccc(NC(=O)Nc2ccc(N3CCN(C(=O)OC(C)(C)C)CC3)cc2)cc1` [Example 26, 4-{4-[3-(4-butoxy-phenyl)-ureido]-phenyl}-piperazine-1-carboxylic acid tert-butyl ester], the melting point fell in the range of 185 to 188 °C.

`CC(C)(C)OC(=O)N1CCN(c2ccc(NC(=O)Nc3cc(C(F)(F)F)ccc3F)cc2)CC1` [Example 27, 4-{4-[3-(2-fluoro-5-trifluoromethyl-phenyl)-ureido]-phenyl}-piperazine-1-carboxylic acid tert-butyl ester] came in with a melting point of 241 °C.

`CC(C)(C)OC(=O)N1CCN(c2ccc(NC(=O)Nc3cc(C(F)(F)F)ccc3Cl)cc2)CC1` [Example 28, 4-{4-[3-(2-chloro-5-trifluoromethyl-phenyl)-ureido]-phenyl}-piperazine-1-carboxylic acid tert-butyl ester] registered a melting point of 221 to 223 °C.

Compound `Cc1ccc(Cl)c(NC(=O)Nc2ccc(N3CCN(C(=O)OC(C)(C)C)CC3)cc2)c1` [Example 29, 4-{4-[3-(2-chloro-5-methyl-phenyl)-ureido]-phenyl}-piperazine-1-carboxylic acid tert-butyl ester] registered a melting point of 222 to 224 °C.

`CCc1cccc(NC(=O)Nc2ccc(N3CCN(C(=O)OC(C)(C)C)CC3)cc2)c1` [Example 30, 4-{4-[3-(3-ethyl-phenyl)-ureido]-phenyl}-piperazine-1-carboxylic acid tert-butyl ester]: the melting point was found to be 160 °C.

`Cc1cccc(NC(=O)Nc2ccc(N3CCN(C(=O)OC(C)(C)C)CC3)cc2)c1` [Example 31, 4-[4-(3-m-tolyl-ureido)-phenyl]-piperazine-1-carboxylic acid tert-butyl ester] yielded a melting point of 169 to 172 °C.

The compound `CC(C)(C)OC(=O)N1CCN(c2ccc(NC(=O)Nc3cccc(Cl)c3)cc2)CC1` [Example 32, 4-{4-[3-(3-chloro-phenyl)-ureido]-phenyl}-piperazine-1-carboxylic acid tert-butyl ester] showed a melting point of 163 °C.

The compound `CCCCc1ccc(NC(=O)Nc2ccc(N3CCN(C(=O)OC(C)(C)C)CC3)cc2)cc1` [Example 34, 4-{4-[3-(4-butyl-phenyl)-ureido]-phenyl}-piperazine-1-carboxylic acid tert-butyl ester] displayed a melting point of 167 to 170 °C.

The compound `Cc1ccc(F)cc1NC(=O)Nc1ccc(N2CCN(C(=O)OC(C)(C)C)CC2)cc1` [Example 36, 4-{4-[3-(5-fluoro-2-methyl-phenyl)-ureido]-phenyl}-piperazine-1-carboxylic acid tert-butyl ester] yielded a melting point of 206 to 208 °C.

Consider `COc1ccc(C)cc1NC(=O)Nc1ccc(N2CCN(C(=O)OC(C)(C)C)CC2)nc1` [Example 38, 4-{5-[3-(2-methoxy-5-methyl-phenyl)-ureido]-pyridin-2-yl}-piperazine-1-carboxylic acid tert-butyl ester], for which the melting point was in the range of 185 to 186 °C.

Turning to `CCOc1ccc(C)cc1NC(=O)Nc1ccc(N2CCN(C(=O)OC(C)(C)C)CC2)cc1` [Example 41, 4-{4-[3-(2-ethoxy-5-methyl-phenyl)-ureido]-phenyl}-piperazine-1-carboxylic acid tert-butyl ester], the melting point is 105 to 107 °C.

In general, melting point refers to the temperature of the solid-liquid transition.
